We go through one compound from paper PMC9920077, “Antimicrobial Natural Products from Plant Pathogenic Fungi” (Molecules, 2023).

A short description of one data set: in vitro. Conditions: human.
A further data set relates to P. aeruginosa ATCC 27853. Put plainly: MIC against P. aeruginosa ATCC 27853, CO-ADD. Conditions: Pseudomonas aeruginosa, ATCC27853; P. aeruginosa ATCC 27853; mean of two experiments; read-out: MIC P. a. The class given is cell-based. The source says: (§1) Antimicrobial evaluation of the pure compounds against A. baumannii ATCC 19606, Candida albicans ATCC 90028, Cryptococcus neoformans ATCC 208821, E. coli ATCC 25922, K. pneumoniae ATCC 700603, P. aeruginosa ATCC 27853, and S. aureus ATCC 43300 (MRSA) was undertaken at the Community for Open Antimicrobial Drug Discovery at The University of Queensland (St. Lucia, Queensland, Australia) according to standard protocols as previously described.

For data set [1], the system named is S. aureus ATCC 43300 (MRSA). Put plainly: MIC against S. aureus ATCC 43300 (MRSA), CO-ADD. Format: cell-based, Staphylococcus aureus. Conditions: Staphylococcus aureus; S. aureus ATCC 43300 (MRSA); mean of two experiments; read-out: MIC S. a.
Excerpt: as §1

The subject of another data set is Bacillus subtilis. Set-up: method as in PMID 4629229. Conditions: disk diffusion assays; cited from earlier work. Background: A growth-free zone around the sample is the usual read-out of agar diffusion tests.
The subject of another data set is E. coli. Set-up: method as in PMID 4629229. Conditions: disk diffusion assays; cited from earlier work.
The test system of another data set is M. marinum BSG101. The data set is described as follows: Antimycobacterial bioluminescence assay of pure compounds, M. marinum. Conditions: Mycobacterium marinum, BSG101, 72 h.
A further data set has as its system A. baumannii ATCC 19606. Put plainly: MIC against A. baumannii ATCC 19606, CO-ADD. Format: cell-based. Conditions: Acinetobacter baumannii, ATCC19606; A. baumanii ATCC 19606; mean of two experiments; read-out: MIC A. b.
Excerpt: as §1

Data set [2] concerns C. neoformans ATCC 208821. The data set is described as follows: MIC against C. neoformans ATCC 208821, CO-ADD. Format: cell-based. Conditions: Cryptococcus neoformans, ATCC208821; C. neoformans ATCC 208821; mean of two experiments; read-out: MIC C. n.
Excerpt: as §1

A further data set has as its system Aspergillus flavus. Set-up: method as in PMID 4629229, PMID 9797310, PMID 19801865. Conditions: cited from earlier work.
Data set [3] deals with K. pneumoniae ATCC 700603. Put plainly: MIC against K. pneumoniae ATCC 700603, CO-ADD. The class given is cell-based. Conditions: Klebsiella pneumoniae, ATCC700603; K. pneumoniae ATCC 700603; mean of two experiments; read-out: MIC K. p.
Excerpt: as §1

The subject of another data set is human red blood cells. Conditions: human.
A further data set relates to E. coli ATCC 25922. Put plainly: MIC against E. coli ATCC 25922, CO-ADD. Format: cell-based. Conditions: Escherichia coli, ATCC25922; E. coli ATCC 25922; mean of two experiments; read-out: MIC E. c.
Excerpt: as §1

A further data set concerns C. albicans ATCC 90028. The data set is described as follows: MIC against C. albicans ATCC 90028, CO-ADD. The class given is cell-based, Candida albicans.
Excerpt: as §1

As usually defined, the MIC is the lowest concentration that inhibits growth of the organism.

Values after ≈ are worked out from the molar mass of the structure shown.

Procedure for M. marinum BSG101: Antimicrobial evaluation against M. abscessus and M. marinum was undertaken using in-house assays with the bioluminescent derivatives M. abscessus BSG301 [63] and M. marinum BSG101 [64]. […] Specifically, mycobacterial cultures were grown with shaking at 200 rpm in Middlebrook 7H9 broth (Fort Richard, Auckland, New Zealand) supplemented with 10% Middlebrook ADC enrichment media (Fort Richard, Auckland, New Zealand), 0.4% glycerol (Sigma-Aldrich, St. Louis, MO, USA), and 0.05% tyloxapol (Sigma-Aldrich, St. Louis, MO, USA). M. abscessus was grown at 37 °C and M. marinum at 28 °C. Cultures were grown until they reached the stationary phase (approximately 3–5 days for M. abscessus BSG301 and 7–10 days for M. marinum BSG101) and then diluted in MHB supplemented with 10% Middlebrook ADC enrichment media and 0.05% tyloxapol to give an optical density at 600 nm (OD600) of 0.001, which is the equivalent of ~10^6 bacteria per mL. Pure compounds were dissolved in DMSO and added to the wells of a black 96-well plate (Nunc, Thermo Scientific, Waltham, MA, USA) at doubling dilutions with a maximum concentration of 128 mg/mL. […] Bacterial luminescence was measured at regular intervals over 72 h using a Victor X-3 luminescence plate reader with an integration time of 1 s. […]
Procedure for in vitro: All compounds were also evaluated for their cytotoxicity against human embryonic kidney cells (HEK-293) and any haemolytic activity against human red blood cells.

The compound `C[C@@H]1C[C@H]2O[C@@H]2/C=C\C=C\C(=O)Cc2c(Cl)c(O)cc(O)c2C(=O)O1` [compound 10, radicicol] displayed a CC50 in the data set “in vitro” above 88 µM. Moreover, the MIC was above 88 µM in the data set with P. aeruginosa ATCC 27853; above 88 µM in data set [1]; 64 µg/mL (≈ 175 µM) in the data set with M. marinum BSG101; above 88 µM in the data set with A. baumannii ATCC 19606; above 88 µM in data set [2]; above 88 µM in data set [3]. In addition, the MIC in the data set with E. coli ATCC 25922 was above 88 µM; in the data set with C. albicans ATCC 90028 (Candida albicans, ATCC90028, C. albicans ATCC 90028, mean of two experiments, read-out: MIC C. a), 44 µM (≈ 16.1 µg/mL). Further, the “activity against B. subtilis” value in the data set on Bacillus subtilis is “active”. Also, in the data set on E. coli, the “activity against E. coli” value is listed as “none of the compounds were active”. In the data set on Aspergillus flavus, the “activity against Aspergillus flavus” value was “activity”. This compound also registered an HC10 in the data set with human red blood cells above 88 µM. The “antifungal activity against C. albicans” value in the data set on C. albicans ATCC 90028 (C. albicans) is on record as “moderate antifungal activity”.
